According to patent US6620828B2, “Thiazole compounds and pharmaceutical compositions for inhibiting protein kinases and methods for their use” (Agouron Pharmaceuticals, Inc., priority 1999, dated 2003):

Columns and labels:
Type in all cases: biochemical
[1] = target: T1, unphosphorylated VEGF-R2Δ50 (FLVK) (Homo sapiens, UniProt P35968, DEL940-989/E990V); test: VEGF-R2 coupled spectrophotometric assay, unphosphorylated enzyme (FLVK); conditions: Table 3; some entries 'Slow binder'
T1 construct: VEGF-R2Δ50 contains residues 806-939 and 990-1171; made in house; host or cells: baculovirus/insect cells
Text: VEGF-R2 Construct for Assay: This construct determines the ability of a test compound to inhibit tyrosine kinase activity. A construct (VEGF-R2Δ50) of the cytosolic domain of human vascular endothelial growth factor receptor 2 (VEGF-R2) lacking the 50 central residues of the 68 residues of the kinase insert domain was expressed in a baculovirus/insect cell system. Of the 1356 residues of full-length VEGF-R2, VEGF-R2Δ50 contains residues 806-939 and 990-1171, and also one point mutation (E990V) within the kinase insert domain relative to wild-type VEGF-R2. Autophosphorylation of the purified construct was performed by incubation of the enzyme at a concentration of 4 μM in the presence of 3 mM ATP and 40 mM MgCl2 in 100 mM Hepes, pH 7.5, containing 5% glycerol and 5 mM DTT, at 4° C. for 2 h. […] See Parast et al., Biochemistry, 37, 16788-16801 (1998).
The production of ADP from ATP that accompanies phosphoryl transfer was coupled to oxidation of NADH using phosphoenolpyruvate (PEP) and a system having pyruvate kinase (PK) and lactic dehydrogenase (LDH). The oxidation of NADH was monitored by following the decrease of absorbance at 340 nm (e340=6.22 cm^−1 mM^−1) using a Beckman DU 650 spectrophotometer. Assay conditions for phosphorylated VEGF-R2Δ50 (indicated as FLVK-P in the tables below) were the following: 1 mM PEP; 250 μM NADH; 50 units of LDH/mL; 20 units of PK/mL; 5 mM DTT; 5.1 mM poly(E4Y1); 1 mM ATP; and 25 mM MgCl2 in 200 mM Hepes, pH 7.5. Assay conditions for unphosphorylated VEGF-R2Δ50 (indicated as FLVK in the tables) were the following: 1 mM PEP; 250 μM NADH; 50 units of LDH/mL; 20 units of PK/mL; 5 mM DTT; 20 mM poly(E4Y1); 3 mM ATP; and 60 mM MgCl2 and 2 mM MnCl2 in 200 mM Hepes, pH 7.5. Assays were initiated with 5 to 40 nM of enzyme. Ki values were determined by measuring enzyme activity in the presence of varying concentrations of test compounds. The data were analyzed using Enzyme Kinetic and Kaleidagraph software.

FL-CHK1 = target: T2, FL-CHK1 (Homo sapiens, UniProt O14757); test: CHK1 assay; conditions: 20 μM; combinatorial library compounds
T2 construct: C-terminally His-tagged full-length human CHK1 (FL-CHK1); 6xHis (C); made in house; host or cells: baculovirus/insect cells
T2 sequence (O14757 1-476): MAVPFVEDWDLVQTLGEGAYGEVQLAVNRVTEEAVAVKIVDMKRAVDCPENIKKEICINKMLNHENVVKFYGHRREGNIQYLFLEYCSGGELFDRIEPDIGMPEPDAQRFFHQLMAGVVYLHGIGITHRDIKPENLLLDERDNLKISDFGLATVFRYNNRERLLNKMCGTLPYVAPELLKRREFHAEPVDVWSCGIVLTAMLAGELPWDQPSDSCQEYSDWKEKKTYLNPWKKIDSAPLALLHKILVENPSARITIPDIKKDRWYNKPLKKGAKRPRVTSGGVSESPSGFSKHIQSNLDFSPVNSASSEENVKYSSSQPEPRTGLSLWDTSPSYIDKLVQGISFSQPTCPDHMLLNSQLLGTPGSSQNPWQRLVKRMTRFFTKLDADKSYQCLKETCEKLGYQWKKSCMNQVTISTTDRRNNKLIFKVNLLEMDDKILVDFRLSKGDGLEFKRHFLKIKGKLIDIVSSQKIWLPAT
How it was run: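 Full-length human CHK1 with C-terminal 6×His tag, made in baculovirus/insect cells, 10 nM, phosphorylating 0.125 mM Syntide-2 with 0.15 mM ATP in 50 mM Tris pH 7.5, 25 mM MgCl2, 400 mM NaCl. PK/LDH-coupled NADH oxidation read at 340 nm. Ki from initial rates over varied compound concentrations.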

CDK4/Cyclin D3 complex = target: T3, CDK4/Cyclin D3 complex (Homo sapiens, UniProt P11802); test: CDK4/Cyclin D assay; conditions: 1.0 μM; combinatorial library compounds
T3 construct: made in house; host or cells: insect cells co-infected with baculovirus vectors
How it was run: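 Insect-cell-expressed CDK4/cyclin D3 (50 nM) phosphorylating His-tagged Rb fragment (residues 386-928) with 25 μM [^32P]ATP in HEPES pH 7.4, MgCl2, 2% DMSO; 20 min at 30 °C, EDTA stop. Filter-captured 32P by phosphorimager; apparent Ki from competitive or tight-binding inhibition fits.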

[2] = target: T4, phosphorylated VEGF-R2Δ50 (FLVK-P) (Homo sapiens, UniProt P35968, DEL940-989/E990V); test: VEGF-R2 coupled spectrophotometric (FLVK-P) assay; conditions: combinatorial library compounds; for inhibition at 20 µM: read-out: VEGF % inhibition at 20 μM, 20 μM
T4 construct: VEGF-R2Δ50 contains residues 806-939 and 990-1171; made in house; host or cells: baculovirus/insect cells
How it was run: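 Baculovirus-expressed human VEGF-R2Δ50 (residues 806-939/990-1171, E990V) was autophosphorylated with 3 mM ATP, 40 mM MgCl2 for 2 h at 4° C. ADP formation was coupled via PK/LDH to NADH oxidation, read at 340 nm, with 5.1 mM poly(E4Y1), 1 mM ATP, 25 mM MgCl2, Hepes pH 7.5. Ki came from activity across compound concentrations.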

CDK2/Cyclin A complex = CDK2/Cyclin A complex (Homo sapiens, UniProt P24941); test: CDK2/Cyclin A assay; conditions: 1.0 μM; combinatorial library compounds
How it was run: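 Radiometric assay: 150 nM CDK2/cyclin A (insect-cell CDK2, truncated cyclin A) phosphorylates His-tagged Rb fragment (residues 386-928) with 25 μM ATP plus [32P]ATP, pH 7.4 HEPES, 2% DMSO, 30 °C for 20 min. Filter-captured product counted by phosphorimager; apparent Ki from competitive or tight-binding inhibition fits.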

T4 sequence (P35968 with tags, fused parts or gaps DEL940-989/E990V limits assumed): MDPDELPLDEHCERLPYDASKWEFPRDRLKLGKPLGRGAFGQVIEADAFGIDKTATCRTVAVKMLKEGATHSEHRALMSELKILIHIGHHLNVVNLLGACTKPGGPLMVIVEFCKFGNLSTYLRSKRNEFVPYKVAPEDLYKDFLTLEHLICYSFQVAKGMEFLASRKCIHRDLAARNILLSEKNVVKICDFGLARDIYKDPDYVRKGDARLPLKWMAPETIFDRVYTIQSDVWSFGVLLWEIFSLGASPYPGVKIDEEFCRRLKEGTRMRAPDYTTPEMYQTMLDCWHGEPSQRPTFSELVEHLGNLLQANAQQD
T3 sequence (P11802 whole entry): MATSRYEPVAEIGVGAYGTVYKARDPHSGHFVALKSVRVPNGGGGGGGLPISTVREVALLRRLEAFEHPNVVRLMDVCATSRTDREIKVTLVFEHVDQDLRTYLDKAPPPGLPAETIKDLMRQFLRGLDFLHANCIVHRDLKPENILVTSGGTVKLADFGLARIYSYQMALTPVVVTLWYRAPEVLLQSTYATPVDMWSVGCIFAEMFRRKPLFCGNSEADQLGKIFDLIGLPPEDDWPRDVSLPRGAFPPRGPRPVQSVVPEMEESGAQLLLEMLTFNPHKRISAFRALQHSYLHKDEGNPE
T3 sequence (P30281 whole entry partner): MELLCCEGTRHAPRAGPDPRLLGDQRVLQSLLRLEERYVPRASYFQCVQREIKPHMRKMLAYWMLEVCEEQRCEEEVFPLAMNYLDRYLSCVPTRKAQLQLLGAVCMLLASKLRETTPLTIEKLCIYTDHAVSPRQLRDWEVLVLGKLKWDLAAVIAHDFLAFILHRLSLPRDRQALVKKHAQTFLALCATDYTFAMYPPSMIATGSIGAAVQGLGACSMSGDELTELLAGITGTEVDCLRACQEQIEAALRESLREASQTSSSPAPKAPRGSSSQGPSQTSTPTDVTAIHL
T1 sequence (P35968 with tags, fused parts or gaps DEL940-989/E990V limits assumed): as the sequence (P35968 with tags, fused parts or gaps DEL940-989/E990V limits assumed) above

Compound | Ki [1] [nM] | inhibition at 20 µM (FL-CHK1) [%] | CDK4 % Inhibition at 1.0 μM (CDK4/Cyclin D3 complex) [%] | inhibition at 20 µM [2] [%] | CDK2 % Inhibition at 1.0 μM (CDK2/Cyclin A complex) [%] | CHK1 % Inhibition at 20 μM (FL-CHK1) [%] | inhibition at 1 µM (CDK4/Cyclin D3 complex) [%] | inhibition at 1 µM (CDK2/Cyclin A complex) [%] | VEGF % inhibition at 20 μM [2] [%]
Cc1ccc(NC(=O)C(O)CC(C)C)cc1-c1noc(-c2sc(Nc3cccc(CN4CCCC4)c3)nc2N)n1 (racemic) [B(11), (R,S)-3-[3-(2-hydroxy-4-methylpentanoyl)amino]-6-methylphenyl]-5-[2-(3-methylpyrrolidinephenyl)amino]-4-amino-5-thiazolyl]-1,2,4 oxadiazole] | 0.7 |  |  |  |  |  |  |  | 
Nc1nc(Nc2ccc(S(N)(=O)=O)cc2)sc1-c1nc(-c2ccccc2)cs1 [drawing 421] |  | 11.2 | −33.4 | 23 | 8.2 |  |  |  | 
Cc1c(-c2csc(-c3sc(Nc4ccc(S(N)(=O)=O)cc4)nc3N)n2)sc2ccc(Cl)cc12 [drawing 424] |  |  |  | 23 |  | 28.4 | 59.9 | 67 | 
COc1ccc(-c2csc(-c3sc(Nc4ccc(S(N)(=O)=O)cc4)nc3N)n2)cc1 [drawing 425] |  |  | 40.9 |  | 54.2 | 10.7 |  |  | 11
Cc1c(-c2csc(-c3sc(Nc4ccc(S(N)(=O)=O)cc4)nc3N)n2)sc2ccc(Cl)cc12 [drawing 426] |  |  | 70.6 |  | 56 | 9.7 |  |  | 19
Nc1nc(Nc2ccc(S(N)(=O)=O)cc2)sc1-c1nc(-c2ccccc2)cs1 [drawing 435] |  |  | 43.3 |  | 60.8 | 12.3 |  |  | 34
Cc1c(F)cc(-c2csc(-c3sc(Nc4ccc(S(N)(=O)=O)cc4)nc3N)n2)cc1Cl [drawing 440] |  | 21.1 |  | 5 |  |  | 75 | 68 | 
Nc1nc(Nc2ccc(S(N)(=O)=O)cc2)sc1-c1nc(-c2ccc(F)cc2F)cs1 [drawing 445] |  | 21.6 |  | 40 |  |  | 58.2 | 74.1 | 
COc1ccc(-c2csc(-c3sc(Nc4ccc(C(C)C)cc4)nc3N)n2)cc1 [drawing 462] |  |  |  | 19 |  | 4.7 | 60.9 | 27.8 | 
CC(C)c1ccc(Nc2nc(N)c(-c3nc(-c4ccccc4)cs3)s2)cc1 [drawing 484] |  |  | −42.5 |  |  | 4 |  | 23.3 | −4
Cc1c(-c2csc(-c3sc(Nc4ccc(C(C)C)cc4)nc3N)n2)sc2ccc(Cl)cc12 [drawing 487] |  | 32.3 |  | 47 |  |  | 79.6 | 38.6 | 
COc1ccc(-c2csc(-c3sc(Nc4ccc(C(C)C)cc4)nc3N)n2)cc1 [drawing 488] |  |  | 79 |  | 38.3 | 14.2 |  |  | 12
Cc1c(-c2csc(-c3sc(Nc4ccc(C(C)C)cc4)nc3N)n2)sc2ccc(Cl)cc12 [drawing 489] |  |  | 79.9 |  | 31 | 17.8 |  |  | 42
CC(C)c1ccc(Nc2nc(N)c(-c3nc(-c4ccccc4)cs3)s2)cc1 [drawing 498] |  |  | 59.4 |  | 18.5 | 0.2 |  |  | 22
COc1ccc(-c2csc(-c3sc(Nc4ccc(N(C)C)cc4)nc3N)n2)cc1 [drawing 525] |  |  | 19.1 | 13 | 6.1 | 2.7 |  |  | 
CN(C)c1ccc(Nc2nc(N)c(-c3nc(-c4ccccc4)cs3)s2)cc1 [drawing 547] |  | 13.1 | −48.3 | 17 |  |  |  | 17.2 | 
Cc1c(-c2csc(-c3sc(Nc4ccc(N(C)C)cc4)nc3N)n2)sc2ccc(Cl)cc12 [drawing 550] |  | 41.9 |  | 31 | 17.1 |  | 64.3 |  | 
COc1ccc(-c2csc(-c3sc(Nc4ccc(N(C)C)cc4)nc3N)n2)cc1 [drawing 551] |  |  | 83 |  | 29.8 | 34.8 |  |  | 23
Cc1c(-c2csc(-c3sc(Nc4ccc(N(C)C)cc4)nc3N)n2)sc2ccc(Cl)cc12 [drawing 552] |  |  | 65.1 |  | 37.3 | 26.8 |  |  | 29
CN(C)c1ccc(Nc2nc(N)c(-c3nc(-c4ccccc4)cs3)s2)cc1 [drawing 561] |  |  | 65.1 |  | 19.7 | 17.5 |  |  | 30
